From patent US11497819B2, “PSMA ligands for imaging and endoradiotherapy” (priority 2017, dated 2022)
Several values for one entry are separate records, joined by “and”; a condition that tells them apart may be missing. Equal values may be shown once. Read-outs that look alike come from different tables or passages of the source.

Experiments:
[1] = tested on: LNCaP cells; test: Internalization into LNCaP cells, relative cellular uptake to ([^125I]I-BA)KuE; format: cell-based; conditions: c = 1.0 nM ^177Lu-labeled inhibitor, 37° C., 60 min, corrected for non-specific binding (10 μM 2-PMPA), mean ± SD (n = 3)
Method: PSMA-positive LNCAP cells (300265; Cell Lines Service GmbH) were cultivated in Dulbecco modified Eagle medium/Nutrition Mixture F-12 (1/1) (DMEM-F12, Biochrom) supplemented with fetal calf serum (FCS) (10%, Biochrom) and kept at 37° C. in a humidified CO2 atmosphere (5%). One day (24 h±2 h) prior to all experiments with LNCaP cells, the cultivated cells were harvested using a mixture of trypsin/ethylendiaminetetraacetate (0.05%/0.02%) and PBS and centrifuged. After centrifugation, the supernatant was disposed and the cell pellet resuspended in culture medium. Afterwards, cells were counted with a hemocytometer (Neubauer) and seeded in 24-well plates.
Subsequent to the removal of the culture medium, the cells were washed once with DMEM-F12-solution (500 μL, 5% BSA) and left to equilibrate for at least 15 min at 37° C. in DMEM-F12-solution (200 μL, 5% BSA). Afterwards, each well was treated with either DMEM-F12-solution (25 μL, 5% BSA) or 2-PMPA-solution (25 μL, 100 μm) for blockade. […] The experiment was terminated by placing the 24-well plate on ice for 3 min and the consecutive removal of the medium. Each well was rinsed with HBSS (250 μL) and the fractions from these first two steps combined, representing the amount of free radioligand. Removal of surface bound activity was accomplished by incubation of the cells with ice-cold 2-PMPA-solution (250 μL, 10 μm in PBS) for 5 min and subsequent rinsing with ice-cold PBS (250 μL). The internalized activity was determined through incubation of the cells in NaOH (250 μL, 1.0 m) and the combination with the fraction of the subsequent washing step with again NaOH (250 μL, 1.0 m). Each experiment (control and blockade) was performed in triplicate for each time point. Free, surface bound and internalized activity was quantified in a γ-counter.

[2] = Lipophilicity, logP in n-octanol/PBS of radiolabeled PSMA inhibitors; format: physicochemical; conditions: pH 7.4
Method: The radiolabeled PSMA inhibitor (0.5 to 1.0 MBq) dissolved in PBS (500 μL, pH=7.4), was added to n-octanol (500 μL) in a reaction vial (1.5 mL), which was rigorously vortexed for 3 min (n=6). For quantitative phase separation, the mixture was centrifuged at 6,000 g for 5 min (Biofuge 15, Heraus Sepatech, Osterode, Germany). The activity from samples of each phase (100 μL) were measured in a γ-counter to obtain the log P(o/w) value.

[3] = tested on: LNCaP cells; test: Externalization kinetics / cell retention in LNCaP cells; format: cell-based; conditions: 60 min incubation, ^177Lu-labeled
Method: FIG. 2: Externalization kinetics of selected ^177Lu-labeled PSMA inhibitors from LNCaP cells. […] Then, the supernatant was removed and once washed with DMEM-solution (5% BSA, 37° C.). Afterwards, either A) only DMEM-solution (5% BSA) or B) blockade DMEM-solution (5% BSA, 10 μm 2-PMPA) were added for replacement. The total cellular internalized activity at t=0 min was corrected for non-specific binding (10 μm 2-PMPA) and normalized to 100%. All data are expressed as mean±SD (n=3).
Externalization kinetics of the radiolabeled PSMA inhibitors were determined using LNCaP cells, which were similarly prepared as described for the internalization assay. After an initial cell-washing step with DMEM-F12-solution (5% BSA), the cells were left to recondition for at least 15 min at 37° C. Subsequently, the LNCaP cells were incubated with the respective radiolabeled peptide (25 μL, 10.0 nm) at 37° C. for 60 min in a total volume of 250 μL in each well. After 60 min, the supernatant with the unbound free fraction was removed and measured in a γ-counter for the calculation of total added radioactivity. An acid wash step was avoided to warrant enzyme integrity during the following externalization and recycling study. To determine the recycling rate, fresh DMEM-F12-solution (250 μL, 5% BSA) was given to the cells to allow re-internalization. In contrast, re-internalization was inhibited by addition of DMEM-F12-solution containing 2-PMPA (225 μL DMEM-F12 (5% BSA) and 25 μL of 100 μm 2-PMPA-solution (PBS)). The cells were then incubated for 0, 20, 40 and 60 min at 37° C. Consequently, the supernatant was removed and the cells were washed with ice-cold HBSS (250 μL). The combination of the supernatant and the volume of the concomitant washing step with HBSS (200 μL) account for externalized radioligand at the investigated time point. Further, the cells were then washed with ice-cold 2-PMPA HBSS solution (250 μL, 10 μm) twice, combined and thus represented the fraction of membrane-bound radioligand. The determination of the internalized fraction was achieved by lysis as described for the internalization assay with NaOH (250 μL, 1.0 m). The activities of free, externalized, membrane-bound and internalized radioligand were quantified in a γ-counter.

[4] = tested on: LNCaP-tumor xenograft; test: Biodistribution in LNCaP-tumor xenograft bearing CB-17 SCID mice; format: in vivo
Method: All animal experiments were carried out in accordance with the general animal welfare regulations in Germany (Deutsches Tierschutzgesetz, approval #55.2-1-54-2532-71-13). For the tumor model, LNCaP cells (approx. 10^7 cells) were suspended in serum-free DMEM-F12 medium and Matrigel (1/1; v/v) (BD Biosciences, Germany) and inoculated onto the right shoulder of male, 6 to 8 weeks old CB-17 SCID mice (Charles River Laboratories, Sulzfeld, Germany). Animals were used after the tumor size reached 4 to 8 mm in diameter for experiments.

[5] = molecular target: T1, HSA (Homo sapiens, UniProt P02768); test: HSA binding on Chiralpak HSA column; format: in vitro ADME; conditions: human, 0.5 mg/mL
T1 construct: purchased Daicel Chemical Industries / Chiral Technologies Europe (Illkirch, France)
Method: HSA binding experiments were performed as previously described. […] For each run, 10 μL of the solution containing the inhibitor was injected into the RP-HPLC system and the retention time measured. […] Non-linear regression was established with OriginPro 2016G.

[6] = 1 h p.i., ^177Lu-labeled, n = 4
[7] = 1 h p.i., ^177Lu-labeled, n = 4, listed as [^177Lu]PSMA I&T
[8] = 24 h p.i., ^177Lu-labeled, n = 4
[9] = male, CB-17 SCID, mouse, in vivo, 1 h
[10] = male, CB-17 SCID, mouse, in vivo, 24 h

T1 sequence (P02768 25-609): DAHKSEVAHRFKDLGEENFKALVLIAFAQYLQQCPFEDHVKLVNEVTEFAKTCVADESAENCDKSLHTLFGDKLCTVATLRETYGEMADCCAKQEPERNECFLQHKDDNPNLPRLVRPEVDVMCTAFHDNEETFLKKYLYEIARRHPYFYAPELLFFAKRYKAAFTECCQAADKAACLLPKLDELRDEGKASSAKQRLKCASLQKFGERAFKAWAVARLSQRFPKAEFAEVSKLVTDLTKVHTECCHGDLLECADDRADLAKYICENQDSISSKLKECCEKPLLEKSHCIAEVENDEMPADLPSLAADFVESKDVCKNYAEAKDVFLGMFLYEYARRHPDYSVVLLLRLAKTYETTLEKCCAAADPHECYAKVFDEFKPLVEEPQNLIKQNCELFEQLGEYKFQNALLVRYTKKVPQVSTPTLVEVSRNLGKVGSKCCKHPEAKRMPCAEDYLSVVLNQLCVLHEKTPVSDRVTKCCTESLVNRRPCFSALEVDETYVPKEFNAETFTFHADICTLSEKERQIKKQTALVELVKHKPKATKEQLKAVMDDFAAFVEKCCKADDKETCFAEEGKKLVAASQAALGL

`O=C(O)CC[C@H](NC(=O)N[C@@H](CCCCNC(=O)CCCCCCC(=O)NCCCC[C@@H](NC(=O)[C@@H](Cc1ccccc1)NC(=O)[C@@H](Cc1ccc(O)c(I)c1)NC(=O)CCC(C(=O)O)N1CCN(CC(=O)O)CCN(CC(=O)O)CCN(CC(=O)O)CC1)C(=O)O)C(=O)O)C(=O)O` (some centres unmarked) [PSMA I&T, DOTAGA-y(3-I)fk(Sub-KuE), reference compound] showed an Internalization ([1]; listed as [^177Lu]PSMA I&T) of 75.5±1.6%, an Internalization ([1]; listed as [^nat/177Lu]PSMA I&T) of 75.5 ± 1.6% and a logP ([2]; distribution coefficient in n-octanol/PBS, radiolabeled inhibitor, mean ± SD (n = 6), read-out: logP) of -4.12 ± 0.11. The “in vitro tumor cell retention” value [3] was 62.8±0.4%, the adrenal gland [4, 6] was 6.25 ± 2.59 % ID/g and the blood [4, 6] was 0.37 ± 0.10 % ID/g. It also gave a bone [4, 6] of 0.14 ± 0.04 % ID/g, a brain [4, 6] of 0.03 ± 0.01 % ID/g and a heart [4, 6] of 0.58 ± 0.15 % ID/g. The intestine [4, 6] was 0.59 ± 0.50 % ID/g, the liver [4, 6] was 0.37 ± 0.10 % ID/g and the lung [4, 6] was 1.32 ± 0.45 % ID/g. The muscle [4, 6] was 0.18 ± 0.07 % ID/g, the pancreas [4, 6] was 1.30 ± 1.39 % ID/g and the spleen [4, 6] was 13.8 ± 4.59 % ID/g. The stomach [4, 6] was 0.29 ± 0.06 % ID/g, the kidney [4, 7] was 128.9±10.7 % ID/g and 128.90 ± 10.74 % ID/g and the tumor [4, 7] was 4.7±1.0 % ID/g and 4.69±0.95 % ID/g. For the same compound, the adrenal g. [4, 8] was 1.06 ± 0.24 % ID/g, the blood [4, 8] was 0.012 ± 0.01 % ID/g and the bone [4, 8] was 0.01 ± 0.01 % ID/g. For the same compound, the brain [4, 8] was 0.02 ± 0.01 % ID/g, the heart [4, 8] was 0.05 ± 0.03 % ID/g and the intestine [4, 8] was 0.12 ± 0.06 % ID/g. The liver [4, 8] was 0.05 ± 0.01 % ID/g, the lung [4, 8] was 0.16 ± 0.03 % ID/g and the muscle [4, 8] was 0.01 ± 0.01 % ID/g. It also gave a pancreas [4, 8] of 0.05 ± 0.02 % ID/g, a spleen [4, 8] of 1.94 ± 1.01 % ID/g and a stomach [4, 8] of 0.05 ± 0.02 % ID/g. For the same compound, the tumor ([4]; 24 h p.i., ^177Lu-labeled, n = 4, listed as [^177Lu]PSMA I&T) was 4.06±1.12 % ID/g.

Compound `Nc1ccc(C[C@H](NC(=O)CCC(C(=O)O)N2CCN(CC(=O)O)CCN(CC(=O)O)CCN(CC(=O)O)CC2)C(=O)N[C@H](Cc2ccc(O)cc2)C(=O)N[C@H](Cc2ccc3ccccc3c2)C(=O)N[C@H](CCCCNC(=O)[C@@H](CC(=O)NCCC[C@@H](NC(=O)CC[C@H](NC(=O)N[C@@H](CCC(=O)O)C(=O)O)C(=O)O)C(=O)O)NC(=O)c2cc(C(=O)O)cc(C(=O)O)c2)C(=O)O)cc1` (some centres unmarked) [PSMA-62, DOTAGA-F(4-NH2)y-2-nal-k(d[N^5-orn-C^4-EuE]-TMA)] has an Internalization ([1]; listed as [^177Lu]PSMA-62) of 343.9%, an Internalization ([1]; listed as [^nat/177Lu]PSMA-62) of 343.9 ± 6.0% and a logP [2] of -4.12 ± 0.05. The “HSA (albumin binding)” value [5] was greater than 91.0%, the adrenal gland [4, 9] was 1.92 ± 0.80 % ID/g and the blood [4, 9] was 0.52 ± 0.03 % ID/g. For the same compound, the bone [4, 9] was 0.30 ± 0.08 % ID/g, the brain [4, 9] was 0.03 ± 0.01 % ID/g and the heart [4, 9] was 0.58 ± 0.06 % ID/g. For the same compound, the intestine [4, 9] was 0.49 ± 0.25 % ID/g, the liver [4, 9] was 0.37 ± 0.04 % ID/g and the lung [4, 9] was 0.87 ± 0.11 % ID/g. The muscle [4, 9] was 0.12 ± 0.03 % ID/g, the pancreas [4, 9] was 0.18 ± 0.05 % ID/g and the spleen [4, 9] was 4.62 ± 1.81 % ID/g. It also gave a stomach [4, 9] of 0.51 ± 0.2 % ID/g, a tumor [4, 9] of 8.00 ± 0.78 % ID/g and a tumor/blood [4, 9] of 15.4. It also gave a tumor/kidney [4, 9] of 0.08, a tumor/muscle [4, 9] of 66.7 and an adrenal g. [4, 10] of 0.04 ± 0.02 % ID/g. It also gave a blood [4, 10] of 0.004 ± 0.001 % ID/g, a bone [4, 10] of 0.04 ± 0.006 % ID/g and a brain [4, 10] of 0.01 ± 0.006 % ID/g. For the same compound, the heart [4, 10] was 0.02 ± 0.01 % ID/g, the intestine [4, 10] was 0.03 ± 0.02 % ID/g and the liver [4, 10] was 0.17 ± 0.07 % ID/g. For the same compound, the lung [4, 10] was 0.03 ± 0.02 % ID/g, the muscle [4, 10] was 0.007 ± 0.001 % ID/g and the pancreas [4, 10] was 0.01 ± 0.002 % ID/g. It also gave a spleen [4, 10] of 0.09 ± 0.06 % ID/g, a stomach [4, 10] of 0.03 ± 0.01 % ID/g and a t/blood [4, 10] of 1925.0. For the same compound, the t/kidney [4, 10] was 1.5, the t/liver [4, 10] was 45.3 and the t/muscle [4, 10] was 1100.0. The tumor [4, 10] was 7.70 ± 1.35 % ID/g.

For `O=C(O)CC[C@H](NC(=O)N[C@@H](CCC(=O)NC(CCCNC(=O)C[C@@H](NC(=O)c1cc(C(=O)O)cc(C(=O)O)c1)C(=O)NCCCC[C@@H](NC(=O)[C@@H](Cc1ccc2ccccc2c1)NC(=O)[C@@H](Cc1ccc(O)cc1)NC(=O)[C@H](Cc1ccc2ccccc2c1)NC(=O)CCC(C(=O)O)N1CCN(CC(=O)O)CCN(CC(=O)O)CCN(CC(=O)O)CC1)C(=O)O)C(=O)O)C(=O)O)C(=O)O` (some centres unmarked) [PSMA-71, DOTAGA-2-Nal-y-2-nal-k(d[N^5-orn-C^4-EuE]-TMA)], the Internalization ([1]; listed as [^177Lu]PSMA-71) was 206.8±1.7%, the Internalization ([1]; listed as [^nat/177Lu]PSMA-71) was 206.8 ± 1.7% and the logP [2] was -4.13 ± 0.09. The “HSA (albumin binding)” value [5] was 98.2%, the adrenal g. [4, 10] was 0.32 ± 0.15 % ID/g and the blood [4, 10] was 0.008 ± 0.001 % ID/g. For the same compound, the bone [4, 10] was 0.04 ± 0.02 % ID/g, the brain [4, 10] was 0.01 ± 0.002 % ID/g and the heart [4, 10] was 0.07 ± 0.01 % ID/g. For the same compound, the intestine [4, 10] was 0.27 ± 015 % ID/g, the liver [4, 10] was 0.38 ± 0.14 % ID/g and the lung [4, 10] was 0.05 ± 0.01 % ID/g. For the same compound, the muscle [4, 10] was 0.01 ± 0.001 % ID/g, the pancreas [4, 10] was 0.15 ± 0.15 % ID/g and the spleen [4, 10] was 0.27 ± 0.15 % ID/g. It also gave a stomach [4, 10] of 0.20 ± 0.10 % ID/g, a t/blood [4, 10] of 1786.3 and a t/kidney [4, 10] of 0.4. For the same compound, the t/liver [4, 10] was 37.6, the t/muscle [4, 10] was 1429.0 and the tumor ([4]; mouse, in vivo) was “highest tumor uptake”.
